Measured values reported in patent US20130085133A1, “ANTI-VIRAL TREATMENT AND ASSAY TO SCREENFOR ANTI-VIRAL AGENT” (Sourthern Research Institute Office of Commercialization …, priority 2010, published 2013).
Where two headings read alike, the source gives them in different places.

Tests used:
[1] = test system: RSV, Long strain; assay: virus titer Reduction (VTR) assay, progeny virus TCID50 in HEp-2 cells; format: cell-based, respiratory syncytial virus (RSV); conditions: for TCID-50 Reduction @ 3 ug/ml / log reduction at 3 µg/mL: 3 ug/ml compound; for TCID-50 Reduction @ 3 ug/ml / TCID-50 Reduction 6 @ ug/ml / TCID-50 Reduction 12 @ ug/ml / TCID-50 Reduction 25 @ ug/ml: log reduction in progeny virus titer; for TCID-50 Reduction 6 @ ug/ml / log reduction at 6 µg/mL: 6 ug/ml compound; for TCID-50 Reduction 12 @ ug/ml / log reduction at 12 µg/mL: 12 ug/ml compound; for TCID-50 Reduction 25 @ ug/ml / log reduction at 25 µg/mL: 25 ug/ml compound; for log reduction at 3 µg/mL: read-out: TCID-50 Reduction @ 3 ug/ml; for log reduction at 6 µg/mL: read-out: TCID-50 Reduction 6 @ ug/ml; for log reduction at 12 µg/mL: read-out: TCID-50 Reduction 12 @ ug/ml; for log reduction at 25 µg/mL: read-out: TCID-50 Reduction 25 @ ug/ml; for log reduction at 5 µg/mL: 5 ug/ml compound, read-out: TCID-50 Reduction @ 5 ug/ml
Procedure, shortened: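 HEp-2 cells infected with RSV Long (MOI 0.9) with four compound concentrations for 48 h; 10-fold serial dilutions of progeny supernatant then put on fresh HEp-2 cells for 6 days. Wells below 50% viability (CellTiter-Glo luminescence) scored infected; TCID50 taken as dilution giving 2 of 4 positive wells.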

[2] = test system: respiratory syncytial virus (RSV) strain Long; conditions: EC50 for CPE inhibition, HEp-2 cells, six days, tested range 25 ug/mL to 0.048 ug/mL (Chembridge), 50 uM to 0.097 uM (Enamine, SRI Proprietary)
[3] = test system: HEp-2 cells; assay: cytotoxicity assay (percent viability of HEp-2 cells, Cell Titer-Glo); conditions: cell viability of HEp-2 cells (text: IC50), top concentration 25 ug/mL (Chembridge), 50 uM (Enamine, SRI Proprietary)
[4] = test system: respiratory syncytial virus (RSV) strain Long; assay: microbe, parasite or virus in culture; conditions: human respiratory syncytial virus, HEp-2, 144 h
[5] = in vitro; conditions: human
[6] = cytotoxicity assay (percent viability of HEp-2 cells, Cell Titer-Glo); conditions: human, HEp-2 cells
[7] = human respiratory syncytial virus, 48 h

SMILES: Cc1ccc2[nH]c3c(c2c1)CN(C)CC3 [AB00275559]
- TCID-50 Reduction @ 3 ug/ml [1]: 1.00
- TCID-50 Reduction 6 @ ug/ml [1]: 1.93
- TCID-50 Reduction 12 @ ug/ml [1]: 2.21
- TCID-50 Reduction 25 @ ug/ml [1]: 1.93
- EC50 ([2]; unit not given): 6.29
- CC50 ([3]; unit not given): >25.00

SMILES: O=C(O)CCNc1nc(Cc2ccccc2)nc2sc3c(c12)CCCC3 [AB00308859]
- EC50 ([2]; unit not given): 20.48
- CC50 ([3]; unit not given): >25.00

SMILES: Cc1[nH]c2ccccc2c1-c1csc(-c2ccncc2)n1 [AB00291074]
- EC50 ([2]; unit not given): 20.59
- CC50 ([3]; unit not given): >25.00

SMILES: COc1ccccc1/C=N/NC(=N)N[N+](=O)[O-] [SRI-101]
- EC50 [4]: 35.7 µM
- CC50 [5]: > 50 µM

SMILES: CC1CCc2[nH]c3ccc(C(=O)OCC(=O)C(C)(C)C)cc3c2C1 (stereo not drawn) [AB00796257]
- EC50 ([2]; unit inferred): 24.8 µM
- CC50 ([3]; unit inferred): > 50 µM

SMILES: Fc1ccc(-c2cc(C(F)(F)F)n[nH]2)cc1 [AB00294826]
- EC50 ([2]; unit not given): 16.73
- CC50 ([3]; unit not given): >25.00

SMILES: CCC(Sc1nnc2c3ccccc3n(CCc3ccccc3)c2n1)C(=O)Nc1ccc(S(N)(=O)=O)cc1 (stereo not drawn) [AB00287440]
- EC50 ([2]; unit not given): 17.84
- CC50 ([3]; unit not given): >25.00

SMILES: CC(=O)Nc1ccc(NC(=O)c2ccc3[nH]c4c(c3c2)CC(C)CC4)cc1 (stereo not drawn) [AB00804772]
- EC50 ([2]; unit inferred): 43.4 µM
- CC50 ([3]; unit inferred): > 50 µM

SMILES: Cc1sc(NC(=O)Cc2ccccc2)c(C(=O)O)c1C [AB00877398]
- EC50 ([2]; unit inferred): 40.1 µM
- CC50 ([3]; unit inferred): > 50 µM

SMILES: CCCOc1ccc(-c2n[nH]c(SCc3ccc(C(=O)OC)o3)n2)cc1 [AB00356597]
- EC50 ([2]; unit not given): 11.59
- CC50 ([3]; unit not given): >25.00

SMILES: Brc1cc2nc[nH]c2c2ccccc12 [AB00358081]
- EC50 ([2]; unit not given): 12.07
- CC50 ([3]; unit not given): >25.00

SMILES: CCN(CC)C(=O)C1CCCc2c1[nH]c1ccc(Cl)cc21 (stereo not drawn) [AB00279132]
- TCID-50 Reduction @ 3 ug/ml [1]: 1.00
- TCID-50 Reduction 6 @ ug/ml [1]: 3.63
- TCID-50 Reduction 12 @ ug/ml [1]: 4.22
- TCID-50 Reduction 25 @ ug/ml [1]: 3.83
- EC50 ([2]; unit not given): 1.92
- CC50 ([3]; unit not given): >25.00

SMILES: O=C(Nc1ccc(OC(F)(F)F)cc1)c1ccc2[nH]cnc2c1 [AB00368222]
- EC50 ([2]; unit not given): 12.26
- CC50 ([3]; unit not given): >25.00

SMILES: CC(=O)c1ccc(NC(=O)C(Cc2c[nH]c3ccccc23)NC(=O)c2cccs2)cc1 (stereo not drawn) [AB00776619]
- EC50 ([2]; unit inferred): 27.3 µM
- CC50 ([3]; unit inferred): > 50 µM

SMILES: Cc1ccc(-c2nc3ccccc3[nH]2)cc1NC(=O)c1ccc2c(c1)OCO2 [AB00348716]
- EC50 ([2]; unit not given): 17.26
- CC50 ([3]; unit not given): >25.00

SMILES: C=CCn1c(SCc2ccc(OC)c([N+](=O)[O-])c2)nnc1-c1cccc(Br)c1 [AB00294809]
- EC50 ([2]; unit not given): 20.29
- CC50 ([3]; unit not given): >25.00

SMILES: Cc1ccc2[nH]c(-c3sc4nc(C)ccc4c3N)nc2c1 [AB00372475]
- EC50 ([2]; unit not given): 21.04
- CC50 ([3]; unit not given): >25.00

SMILES: Cc1cc(C=C(C#N)c2nc3ccccc3[nH]2)c(C)n1-c1ccccn1 [AB00342188]
- EC50 ([2]; unit not given): 13.11
- CC50 ([3]; unit not given): >25.00

SMILES: COc1cc(N2CCCC2)c(OC)cc1C=C(C#N)c1nc2ccccc2[nH]1 [AB00321587]
- EC50 ([2]; unit not given): 9.15
- CC50 ([3]; unit not given): >25.00

SMILES: O=C(Nc1ccc2[nH]c(-c3ccccc3)nc2c1)c1ccccc1 [AB00308659]
- TCID-50 Reduction @ 3 ug/ml [1]: 2.82
- TCID-50 Reduction 6 @ ug/ml [1]: 3.64
- TCID-50 Reduction 12 @ ug/ml [1]: 6.43
- TCID-50 Reduction 25 @ ug/ml [1]: 6.40
- EC50 ([2]; unit not given): 8.66
- CC50 ([3]; unit not given): >25.00

SMILES: CC(=O)Nc1ccc(Nc2ncnc3sc4c(c23)CCCC4)cc1 [AB00296051]
- EC50 ([2]; unit not given): 16.70
- CC50 ([3]; unit not given): >25.00

SMILES: COc1ccc2[nH]c(C(C#N)=Cc3cc4c(cc3Cl)OCO4)nc2c1 [AB00364575]
- EC50 ([2]; unit not given): 17.76
- CC50 ([3]; unit not given): >25.00

SMILES: N#CCCCSc1nnnn1-c1cccc(Cl)c1 [AB00287736]
- EC50 ([2]; unit not given): 16.16
- CC50 ([3]; unit not given): >25.00

SMILES: COc1ccc(-c2cn3cccnc3n2)cc1F [AB00292655]
- EC50 ([2]; unit not given): 10.88
- CC50 ([3]; unit not given): >25.00

SMILES: S=C(c1c[nH]c2ccc(Br)cc12)N1CCOCC1 [AB00303357]
- EC50 ([2]; unit not given): 21.92
- CC50 ([3]; unit not given): >25.00

SMILES: CC(N)=C(C#N)C(=O)CN1C(=O)NC(Cc2c[nH]c3ccccc23)C1=O (stereo not drawn) [AB00722846]
- EC50 ([2]; unit inferred): 1.74 µM
- CC50 ([3]; unit inferred): > 50 µM

SMILES: COc1cc(OC)c(OC)cc1C=Nn1c(S)nnc1-c1ccc(C(C)(C)C)cc1 [AB00291789]
- EC50 ([2]; unit not given): 10.96
- CC50 ([3]; unit not given): >25.00

SMILES: O=S(=O)(O)c1ccc2c(c1)C1=NC/2=N\c2c3cc(S(=O)(=O)O)ccc3c3[n]2[Cu][n]2/c(c4ccc(S(=O)(=O)O)cc4/c2=N/C2=NC(=N\3)/c3cc(S(=O)(=O)O)ccc32)=N\1 [AB00514356]
- CC50 [5]: > 50 µM

SMILES: O=C(Cc1cccs1)Nc1nc2c(s1)CCCC2 [AB00313042]
- log reduction at 3 µg/mL [1, 7]: 3.56
- log reduction at 6 µg/mL [1, 7]: 5.24
- log reduction at 12 µg/mL [1, 7]: 5.43
- log reduction at 25 µg/mL [1, 7]: 6.4
- EC50 [4]: 1.89 µg/mL
- CC50 at 6 days [6]: > 25 µg/mL

SMILES: CC(=O)N(CCCCN1C(=O)c2ccccc2C1=O)c1ccc(C)cc1 [AB00300194]
- log reduction at 3 µg/mL [1, 7]: 1.41
- log reduction at 5 µg/mL [1, 7]: 1.83
- log reduction at 12 µg/mL [1, 7]: 2.04
- log reduction at 25 µg/mL [1, 7]: 2.56
- EC50 [4]: 9.01 µg/mL
- CC50 at 6 days [6]: > 25 µg/mL

SMILES: CCOC(=O)c1ccc(-n2c(C)cc(C=C(C#N)c3nc4ccccc4[nH]3)c2C)cc1 [AB00709376]
- EC50 ([2]; unit inferred): 10.8 µM
- CC50 ([3]; unit inferred): > 50 µM

SMILES: CCCn1c(COc2ccccc2OC)nc2ccccc21 [AB00296415]
- log reduction at 3 µg/mL [1, 7]: 1.74
- log reduction at 5 µg/mL [1, 7]: 2.48
- log reduction at 12 µg/mL [1, 7]: 2.59
- log reduction at 25 µg/mL [1, 7]: 5.9
- EC50 [4]: 4.88 µg/mL
- CC50 at 6 days [6]: > 25 µg/mL

SMILES: Cc1ccc(S(=O)(=O)Nc2ccc(NC(=O)c3c(F)c(F)c(F)c(F)c3F)cc2)cc1 [AB00314111]
- log reduction at 3 µg/mL [1, 7]: 1
- log reduction at 6 µg/mL [1, 7]: 1.01
- log reduction at 12 µg/mL [1, 7]: 1.41
- log reduction at 25 µg/mL [1, 7]: 3.05
- EC50 [4]: 6.97 µg/mL
- CC50 at 6 days [6]: > 25 µg/mL

SMILES: COCCn1c(SC(C)C(=O)Nc2cccc(C(F)(F)F)c2)nc2ccccc21 (stereo not drawn) [AB00802246]
- log reduction at 5 µg/mL [1, 7]: 2.26
- log reduction at 12 µg/mL [1, 7]: 3.98
- log reduction at 25 µg/mL [1, 7]: 4.42
- log reduction at 50 µg/mL ([1]; human respiratory syncytial virus, 48 h, 50 ug/ml compound, read-out: TCID-50 Reduction @ 50 ug/ml): 5.87
- EC50 [4]: 9.58 µM
- CC50 at 6 days [6]: > 50 µM
